According to patent US9788539B2, “Platelet protection solution having beta-galactosidase and sialidase inhibitors” (Velico Medical, Inc., priority 2011, dated 2017):
Entries after “also recorded” stand apart in the source; their conditions may differ.

Experiments:
THP-1 cells = assay: Ingestion of β-galactosidase treated platelets by THP-1 cells; assay type: cell-based; conditions: fresh human platelets treated with β-galactosidase
Description: FIG. 44 is a bar graph showing that […] cells ingestion of human platelets correlates with decrease in β-galactose exposure. Isolated human platelets were labeled with CM-Orange, added to THP-1 cells and incubated for 30 min at 37° C. Ingestion of fluorescently labeled control fresh room temperature platelets and platelets treated by β-galactosidase was detected using flow cytometry, as an increase in […] associated orange fluorescence.
We treated fresh isolated platelets from healthy volunteers with β-galactosidase, which cleaves terminal β-galactose from platelet surfaces.

mouse platelets [1] = assay: Sialidase-induced β-galactose exposure on platelets, lectin binding by flow cytometry; assay type: cell-based
[2] = tested on: platelet GPIbα and GPV receptor surface expression; assay: Recombinant TACE-mediated GPIbα and GPV shedding from platelets; assay type: cell-based, mouse
mouse platelets [3] = assay: Surface receptor loss of mouse platelets stored at room temperature; assay type: cell-based; conditions: mouse platelets stored at room temperature for 6 h, with fetuin (30-60% loss without)
mouse platelets [4] = assay: β-galactose exposure by FITC RCA-1 lectin binding with fetuin as competitive sialidase substrate; assay type: cell-based; conditions: fetuin 1 mg/mL
mouse platelets [5] = assay: Sialidase (neuraminidase)-induced loss of platelet surface receptors, flow cytometry and immunoblot; assay type: cell-based
mouse platelets [6] = assay: Survival of mouse platelets stored 20 hrs at RT in pPAS with or without DGJ after transfusion; assay type: in vivo; conditions: 2 mM DGJ in pPAS, 30% plasma 70% pPAS, 20-hr storage at RT, vs pPAS alone
Description: Materials and Methods: Blood was obtained from anesthetized 8 weeks old C57/Bl6 mice by retroorbital bleeding. Platelets and platelet poor plasma (PPP) were prepared by differential centrifugation as described. Isolated platelets were labeled with 2.5 μM of CMFDA for 15 min. Following staining, platelets were pelleted and resuspended in 500 μl of plasma, or in a mixture of 30% plasma and 70% pPAS (i.e., PPS9 formulation in Tables 1 and 3 without the 2 mM of DGJ shown in the tables) or pPAS+DGJ (2 mM) (PPS9 formulation in Tables 1 and 3). Platelets were stored for 20 hrs at room temperature and transfused into 8 weeks old syngeneic mice. Non-stored fresh platelets in plasma were used as control. Platelet survivals were determined by intravenous injections CMFDA-labeled mouse platelets, respectively. Blood was collected by retroorbital bleeding at 5 min, 2, 24, 48 and 72 hrs. The percentages of CMFDA-positive platelets were determined by flow cytometry.

β-galactosidase
ingestion of platelets by THP-1 cells compared to control platelets (THP-1 cells): 4 fold

CNC(=O)[C@H](Cc1c[nH]c2ccccc12)NC(=O)[C@@H](CC(=O)NO)CC(C)C [GM6001]
β-galactose exposure induced by sialidase in presence of inhibitor (mouse platelets [1]): did not prevent β-galactose exposure | receptor shedding by rTACE in presence of inhibitor [2]: inhibited receptor shedding

fetuin: neuraminidase (NA) substrate, competitive sialidase substrate
loss of GPIb and GPV (mouse platelets [3]): 10-20% | RCA-1 binding to fresh platelets (mouse platelets [4]; fresh platelets at room temperature): no effect | sialic acid hydrolysis (β-galactose exposure, RCA-1 binding) during platelet storage (mouse platelets [4]; mouse platelet rich plasma, refrigeration 48 h): inhibits the hydrolysis of sialic acid from platelet glycans; also recorded: greatly inhibits sialic acid hydrolysis | loss (shedding) of platelet GPIbα and GPV induced by sialidase/neuraminidase, in presence of inhibitor (mouse platelets [5]): completely prevented this loss

OC[C@H]1NC[C@H](O)[C@@H](O)[C@H]1O [DGJ, 1-deoxygalactonojirimycin]
survival of the transfused platelets (mouse platelets [6]): significantly improved the survival of the transfused platelets

rTACE: recombinant TACE (ADAM17) metalloprotease
GPIbα released from platelets ([2]; platelets treated with rTACE): 47%±6 | GPV released from platelets ([2]; platelets treated with rTACE): 18%±12 | GPIX and αIIbβ3 released from platelets ([2]; platelets treated with rTACE, not shown): negligible amounts
